Experimental data from ChEMBL document CHEMBL2429768, “Eco-friendly synthesis and antimicrobial activities of substituted-5-(1H-indol-3-yl)methylene)-2,2-dimethyl-1,3-dioxane-4,6-dione derivatives” (2013).
Converted amounts (≈) assume the structure as drawn.

Experiments:
Type in all cases: functional
Rhizoctonia solani [1] = experiment: Antifungal activity against Rhizoctonia solani at 100 ug/ml after 72 hrs by agar well diffusion method; settings: read-out: DIZ
Staphylococcus aureus [2] = experiment: Antibacterial activity against Staphylococcus aureus ATCC 6538 at 50 ug/ml after 24 hrs by agar well diffusion method; settings: ATCC 6538, 24 h, read-out: DIZ
Staphylococcus aureus [3] = experiment: Antibacterial activity against Staphylococcus aureus ATCC 6538 at 200 ug/ml after 24 hrs by agar well diffusion method; settings: ATCC 6538, 24 h, read-out: DIZ
Escherichia coli [4] = experiment: Antibacterial activity against Escherichia coli ATCC 8739 at 200 ug/ml after 24 hrs by agar well diffusion method; settings: ATCC 8739, 24 h, read-out: DIZ
Klebsiella pneumoniae [5] = experiment: Antibacterial activity against Klebsiella pneumoniae at 100 ug/ml after 24 hrs by agar well diffusion method; settings: read-out: DIZ
Bacillus subtilis [6] = experiment: Antibacterial activity against Bacillus subtilis at 500 ug/ml after 24 hrs by agar well diffusion method; settings: read-out: DIZ
Staphylococcus aureus [7] = experiment: Antibacterial activity against Staphylococcus aureus ATCC 6538 at 300 ug/ml after 24 hrs by agar well diffusion method; settings: ATCC 6538, 24 h, read-out: DIZ
Rhizoctonia solani [8] = experiment: Antifungal activity against Rhizoctonia solani after 72 hrs by agar well diffusion method
Aspergillus flavus [9] = experiment: Antifungal activity against Aspergillus flavus at 200 ug/ml after 72 hrs by agar well diffusion method; settings: read-out: DIZ
Bacillus subtilis [10] = experiment: Antibacterial activity against Bacillus subtilis at 50 ug/ml after 24 hrs by agar well diffusion method; settings: read-out: DIZ
Staphylococcus aureus [11] = experiment: Antibacterial activity against Staphylococcus aureus ATCC 6538 at 500 ug/ml after 24 hrs by agar well diffusion method; settings: ATCC 6538, 24 h, read-out: DIZ
Aspergillus niger [12] = experiment: Antifungal activity against Aspergillus niger after 72 hrs by agar well diffusion method
Rhizoctonia solani [13] = experiment: Antifungal activity against Rhizoctonia solani at 500 ug/ml after 72 hrs by agar well diffusion method; settings: read-out: DIZ
Aspergillus flavus [14] = experiment: Antifungal activity against Aspergillus flavus at 500 ug/ml after 72 hrs by agar well diffusion method; settings: read-out: DIZ
Bacillus subtilis [15] = experiment: Antibacterial activity against Bacillus subtilis at 100 ug/ml after 24 hrs by agar well diffusion method; settings: read-out: DIZ
Fusarium oxysporum [16] = experiment: Antifungal activity against Fusarium oxysporum after 72 hrs by agar well diffusion method
Fusarium oxysporum [17] = experiment: Antifungal activity against Fusarium oxysporum at 100 ug/ml after 72 hrs by agar well diffusion method; settings: read-out: DIZ
Escherichia coli [18] = experiment: Antibacterial activity against Escherichia coli ATCC 8739 at 300 ug/ml after 24 hrs by agar well diffusion method; settings: ATCC 8739, 24 h, read-out: DIZ
Aspergillus flavus [19] = experiment: Antifungal activity against Aspergillus flavus at 50 ug/ml after 72 hrs by agar well diffusion method; settings: read-out: DIZ
Aspergillus niger [20] = experiment: Antifungal activity against Aspergillus niger at 300 ug/ml after 72 hrs by agar well diffusion method; settings: read-out: DIZ
Klebsiella pneumoniae [21] = experiment: Antibacterial activity against Klebsiella pneumoniae after 24 hrs by agar well diffusion method
Escherichia coli [22] = experiment: Antibacterial activity against Escherichia coli ATCC 8739 at 50 ug/ml after 24 hrs by agar well diffusion method; settings: ATCC 8739, 24 h, read-out: DIZ
Escherichia coli [23] = experiment: Antibacterial activity against Escherichia coli ATCC 8739 at 100 ug/ml after 24 hrs by agar well diffusion method; settings: ATCC 8739, 24 h, read-out: DIZ
Bacillus subtilis [24] = experiment: Antibacterial activity against Bacillus subtilis at 300 ug/ml after 24 hrs by agar well diffusion method; settings: read-out: DIZ
Fusarium oxysporum [25] = experiment: Antifungal activity against Fusarium oxysporum at 200 ug/ml after 72 hrs by agar well diffusion method; settings: read-out: DIZ
Aspergillus niger [26] = experiment: Antifungal activity against Aspergillus niger at 100 ug/ml after 72 hrs by agar well diffusion method; settings: read-out: DIZ
Aspergillus niger [27] = experiment: Antifungal activity against Aspergillus niger at 50 ug/ml after 72 hrs by agar well diffusion method; settings: read-out: DIZ
Fusarium oxysporum [28] = experiment: Antifungal activity against Fusarium oxysporum at 300 ug/ml after 72 hrs by agar well diffusion method; settings: read-out: DIZ
Fusarium oxysporum [29] = experiment: Antifungal activity against Fusarium oxysporum at 50 ug/ml after 72 hrs by agar well diffusion method; settings: read-out: DIZ
Klebsiella pneumoniae [30] = experiment: Antibacterial activity against Klebsiella pneumoniae at 50 ug/ml after 24 hrs by agar well diffusion method; settings: read-out: DIZ
Aspergillus niger [31] = experiment: Antifungal activity against Aspergillus niger at 200 ug/ml after 72 hrs by agar well diffusion method; settings: read-out: DIZ
Rhizoctonia solani [32] = experiment: Antifungal activity against Rhizoctonia solani at 300 ug/ml after 72 hrs by agar well diffusion method; settings: read-out: DIZ
Aspergillus niger [33] = experiment: Antifungal activity against Aspergillus niger at 500 ug/ml after 72 hrs by agar well diffusion method; settings: read-out: DIZ
Aspergillus flavus [34] = experiment: Antifungal activity against Aspergillus flavus after 72 hrs by agar well diffusion method
Bacillus subtilis [35] = experiment: Antibacterial activity against Bacillus subtilis after 24 hrs by agar well diffusion method
Aspergillus flavus [36] = experiment: Antifungal activity against Aspergillus flavus at 300 ug/ml after 72 hrs by agar well diffusion method; settings: read-out: DIZ
Klebsiella pneumoniae [37] = experiment: Antibacterial activity against Klebsiella pneumoniae at 300 ug/ml after 24 hrs by agar well diffusion method; settings: read-out: DIZ
Staphylococcus aureus [38] = experiment: Antibacterial activity against Staphylococcus aureus ATCC 6538 at 100 ug/ml after 24 hrs by agar well diffusion method; settings: ATCC 6538, 24 h, read-out: DIZ
Rhizoctonia solani [39] = experiment: Antifungal activity against Rhizoctonia solani at 200 ug/ml after 72 hrs by agar well diffusion method; settings: read-out: DIZ
Klebsiella pneumoniae [40] = experiment: Antibacterial activity against Klebsiella pneumoniae at 200 ug/ml after 24 hrs by agar well diffusion method; settings: read-out: DIZ
Klebsiella pneumoniae [41] = experiment: Antibacterial activity against Klebsiella pneumoniae at 500 ug/ml after 24 hrs by agar well diffusion method; settings: read-out: DIZ
Bacillus subtilis [42] = experiment: Antibacterial activity against Bacillus subtilis at 200 ug/ml after 24 hrs by agar well diffusion method; settings: read-out: DIZ
Escherichia coli [43] = experiment: Antibacterial activity against Escherichia coli ATCC 8739 after 24 hrs by agar well diffusion method; settings: ATCC 8739, 24 h
Aspergillus flavus [44] = experiment: Antifungal activity against Aspergillus flavus at 100 ug/ml after 72 hrs by agar well diffusion method; settings: read-out: DIZ
Staphylococcus aureus [45] = experiment: Antibacterial activity against Staphylococcus aureus ATCC 6538 after 24 hrs by agar well diffusion method; settings: ATCC 6538, 24 h
Rhizoctonia solani [46] = experiment: Antifungal activity against Rhizoctonia solani at 50 ug/ml after 72 hrs by agar well diffusion method; settings: read-out: DIZ
Fusarium oxysporum [47] = experiment: Antifungal activity against Fusarium oxysporum at 500 ug/ml after 72 hrs by agar well diffusion method; settings: read-out: DIZ
Escherichia coli [48] = experiment: Antibacterial activity against Escherichia coli ATCC 8739 at 500 ug/ml after 24 hrs by agar well diffusion method; settings: ATCC 8739, 24 h, read-out: DIZ

CCn1cc(C=C2C(=O)OC(C)(C)OC2=O)c2ccccc21
zone of inhibition at 100 µg/mL (Rhizoctonia solani [1]): 12 mm
zone of inhibition at 50 µg/mL (Staphylococcus aureus [2]): 6 mm
zone of inhibition at 200 µg/mL (Staphylococcus aureus [3]): 14 mm
zone of inhibition at 200 µg/mL (Escherichia coli [4]): 16 mm
zone of inhibition at 100 µg/mL (Klebsiella pneumoniae [5]): 14 mm
zone of inhibition at 500 µg/mL (Bacillus subtilis [6]): 22 mm
zone of inhibition at 300 µg/mL (Staphylococcus aureus [7]): 18 mm
MIC (Rhizoctonia solani [8]): 35 µg/mL (≈ 117 µM)
zone of inhibition at 200 µg/mL (Aspergillus flavus [9]): 12 mm
zone of inhibition at 50 µg/mL (Bacillus subtilis [10]): 4 mm
zone of inhibition at 500 µg/mL (Staphylococcus aureus [11]): 25 mm
MIC (Aspergillus niger [12]): 40 µg/mL (≈ 134 µM)
zone of inhibition at 500 µg/mL (Rhizoctonia solani [13]): 29 mm
zone of inhibition at 500 µg/mL (Aspergillus flavus [14]): 23 mm
zone of inhibition at 100 µg/mL (Bacillus subtilis [15]): 9 mm
MIC (Fusarium oxysporum [16]): 35 µg/mL (≈ 117 µM)
zone of inhibition at 100 µg/mL (Fusarium oxysporum [17]): 12 mm
zone of inhibition at 300 µg/mL (Escherichia coli [18]): 20 mm
zone of inhibition at 50 µg/mL (Aspergillus flavus [19]): 4 mm
zone of inhibition at 300 µg/mL (Aspergillus niger [20]): 18 mm
MIC (Klebsiella pneumoniae [21]): 15 µg/mL (≈ 50.1 µM)
zone of inhibition at 50 µg/mL (Escherichia coli [22]): 8 mm
zone of inhibition at 100 µg/mL (Escherichia coli [23]): 13 mm
zone of inhibition at 300 µg/mL (Bacillus subtilis [24]): 14 mm
zone of inhibition at 200 µg/mL (Fusarium oxysporum [25]): 16 mm
zone of inhibition at 100 µg/mL (Aspergillus niger [26]): 10 mm
zone of inhibition at 50 µg/mL (Aspergillus niger [27]): 6 mm
zone of inhibition at 300 µg/mL (Fusarium oxysporum [28]): 21 mm
zone of inhibition at 50 µg/mL (Fusarium oxysporum [29]): 7 mm
zone of inhibition at 50 µg/mL (Klebsiella pneumoniae [30]): 9 mm
zone of inhibition at 200 µg/mL (Aspergillus niger [31]): 14 mm
zone of inhibition at 300 µg/mL (Rhizoctonia solani [32]): 21 mm
zone of inhibition at 500 µg/mL (Aspergillus niger [33]): 25 mm
MIC (Aspergillus flavus [34]): 40 µg/mL (≈ 134 µM)
MIC (Bacillus subtilis [35]): 30 µg/mL (≈ 100 µM)
zone of inhibition at 300 µg/mL (Aspergillus flavus [36]): 15 mm
zone of inhibition at 300 µg/mL (Klebsiella pneumoniae [37]): 23 mm
zone of inhibition at 100 µg/mL (Staphylococcus aureus [38]): 10 mm
zone of inhibition at 200 µg/mL (Rhizoctonia solani [39]): 16 mm
zone of inhibition at 200 µg/mL (Klebsiella pneumoniae [40]): 18 mm
zone of inhibition at 500 µg/mL (Klebsiella pneumoniae [41]): 31 mm
zone of inhibition at 200 µg/mL (Bacillus subtilis [42]): 11 mm
MIC (Escherichia coli [43]): 15 µg/mL (≈ 50.1 µM)
zone of inhibition at 100 µg/mL (Aspergillus flavus [44]): 9 mm
MIC (Staphylococcus aureus [45]): 25 µg/mL (≈ 83.5 µM)
zone of inhibition at 50 µg/mL (Rhizoctonia solani [46]): 7 mm
zone of inhibition at 500 µg/mL (Fusarium oxysporum [47]): 29 mm
zone of inhibition at 500 µg/mL (Escherichia coli [48]): 30 mm
